24 molecules from patent US20240174641A1, “HETEROCYCLIC COMPOUNDS CAPABLE OF […]” (Boehringer Ingelheim International GmbH, priority 2022, published 2024) can be followed below.

One experiment deals with STING (Canis lupus familiaris, UniProt A0A8I3MH52). The experiment in a line: Dog whole blood (dWB) assay, IFNb secretion by ELISA. It is filed as cell-based. The conditions noted are these: canine Interferon-beta (IFNb) ELISA, 4 h incubation at 37° C. Summed up:
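Citrated dog whole blood (stored overnight at 4 °C) was preincubated with compound for 60 min at room temperature, top concentration 10 μM with about 1:4 steps and 0.1% DMSO. It was then incubated 4 h at 37 °C, with cGAMP added only to the high-control wells. Plasma IFNb was measured by canine ELISA (A450), normalised to the cGAMP-stimulated and unstimulated controls, and EC50 was fitted with a 4-parameter logistic model.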

A further experiment concerns dog STING (dSTING). The experiment in a line: Dog differential scanning fluorimetry (DSF) assay, thermal shift of dog STING protein. It is filed as binding. To be noted: DSF (dDSF); 100 μM compound, 3 μM dog STING protein; Tm with ligand minus Tm of protein alone. Summed up: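 Dog STING residues 149–375, His-tag removed by TEV, tested at 3 μM with 100 μM compound, 5× SYPRO Orange and 2% DMSO in 20 mM Tris, 150 mM NaCl, pH 7.5. Heated 15–95 °C in 0.5 °C steps. Tm from Boltzmann fit, duplicates averaged; ΔTm relative to protein alone.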

Chain of STING (A0A8I3MH52 1-374): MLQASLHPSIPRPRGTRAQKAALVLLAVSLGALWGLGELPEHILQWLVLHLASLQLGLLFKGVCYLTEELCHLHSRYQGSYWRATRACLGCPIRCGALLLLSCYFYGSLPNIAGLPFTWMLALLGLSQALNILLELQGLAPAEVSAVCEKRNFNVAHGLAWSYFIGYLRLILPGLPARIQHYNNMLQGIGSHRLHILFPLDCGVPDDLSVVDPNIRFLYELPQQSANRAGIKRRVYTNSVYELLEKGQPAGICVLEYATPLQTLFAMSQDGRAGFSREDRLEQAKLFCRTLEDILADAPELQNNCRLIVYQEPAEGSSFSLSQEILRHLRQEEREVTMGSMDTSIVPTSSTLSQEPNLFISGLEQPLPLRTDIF

As for `Cc1cccc2c(-c3ccc(F)c4nn(C)c(F)c34)nn(-c3ccc(N4C[C@@H]5[C@H](C4)[C@H]5C(=O)O)nc3)c12` [Example 13, (1R,5S,6R)-3-(5-{3″,7″-Difluoro-2″,7-dimethyl-1H,2″H-[3,4″-biindazol]-1-yl}pyridin-2-yl)-3-azabicyclo[3.1.0]hexane-6-carboxylic acid], a half-maximal response at STING (EC50) required 174 nM. Besides, the “Delta TM” value in the experiment with dog STING (dSTING) turned out to be 33.3 °C.

As for `Cc1cc(F)cc2c(-c3c(F)cc(F)c4nn(C)cc34)nn(-c3ccc(N4CCC(C(=O)O)CC4)nc3)c12` [Example 67, 1-(5-{5,5″,7″-trifluoro-2″,7-dimethyl-1H,2″H-[3,4″-biindazol]-1-yl}pyridin-2-yl)piperidine-4-carboxylic acid], on STING, the EC50 was 102 nM. Besides, the “Delta TM” value in the experiment with dog STING (dSTING) was 37.0 °C.

In the case of `CC(=O)N1CCN(c2ccc(-n3nc(-c4c(F)cc(F)c5nn(C)cc45)c4cc(F)cc(C)c43)cn2)CC1` [Example 68], on STING, the half-maximal effective concentration (EC50) stood at 106 nM. Also, in the experiment with dog STING (dSTING), the “Delta TM” value was found to be 28.5 °C.

Molecule `Cc1cc(F)cc2c(-c3c(F)ccc4nn(C)cc34)nn(-c3ccc(N4C[C@@H]5[C@H](C4)[C@H]5C(=O)O)nc3)c12` [Example 14, (1R,5S,6R)-3-(5-{5,5″-Difluoro-2″,7-dimethyl-1H,2″H-[3,4″-biindazol]-1-yl}pyridin-2-yl)-3-azabicyclo[3.1.0]hexane-6-carboxylic acid] returned an EC50 at STING of 391 nM. For the same molecule, the “Delta TM” value with dog STING (dSTING) worked out at 38.0 °C.

`CC(=O)N1C[C@H]2C[C@@H]1CN2c1ccc(-n2nc(-c3cccc4nn(C)c(F)c34)c3cccc(C)c32)cn1` [Example 22, 1-[(1R,4R)-5-(5-{3″-fluoro-2″,7-dimethyl-1H,2″H-[3,4″-biindazol]-1-yl}pyridin-2-yl)-2,5-diazabicyclo[2.2.1]heptan-- 2-yl]ethan1-one] had a concentration giving a half-maximal response (EC50) at STING of 244 nM. The “Delta TM” value in the experiment with dog STING (dSTING) was found to be 30.4 °C.

`CC(=O)N1C[C@@H]2C[C@H]1CN2c1ccc(-n2nc(-c3c(F)ccc4nn(C)cc34)c3cccc(C)c32)cn1` [Example 30, 1-[(1S,4S)-5-(5-{5″-fluoro-2″,7-dimethyl-1H,2″H-[3,4″-biindazol]-1-yl}pyridin-2-yl)-2,5-diazabicyclo[2.2.1]heptan-2-yl]ethan-1-one] displayed an EC50 on STING of 227 nM. For the same molecule, the “Delta TM” value in the experiment with dog STING (dSTING) is 30.8 °C.

For `Cc1c(F)ccc2c(-c3c(F)ccc4nn(C)cc34)nn(-c3ccc(N4C[C@@H]5[C@H](C4)[C@H]5C(=O)O)nc3)c12` [Example 64, (1R,5S,6R)-3-(5-{5″,6-difluoro-2″,7-dimethyl-1H,2″H-[3,4″-biindazol]-1-yl}pyridin-2-yl)-3-azabicyclo[3.1.0]hexane-6-carboxylic acid], at STING, the EC50 turned out to be 666 nM. In the experiment with dog STING (dSTING), the “Delta TM” value is 36.5 °C.

Consider `Cc1cccc2c(-c3c(F)cc(F)c4nn(C)cc34)nn(-c3ccc(N4CC5CCC4CC5C(=O)O)nc3)c12` (single isomer, unassigned) [Example 48-4], for which a half-maximal response at STING (EC50) required 169 nM. Also, in the experiment on dog STING (dSTING), the “Delta TM” value came to 36.1 °C.

On to `Cc1cccc2c(-c3c(F)ccc4nn(C)cc34)nn(-c3ccc(N4C[C@H]5C[C@@H]4C[C@@H]5C(=O)O)nc3)c12` [Example 27-2, (1R,4S,5S)-2-(5-{5″-fluoro-2″,7-dimethyl-1H,2″H-[3,4″-biindazol]-1-yl}pyridin-2-yl)-2-azabicyclo[2.2.1]heptane-5-carboxylic acid], for which a half-maximal response at STING (EC50) required 247 nM. In addition, the “Delta TM” value with dog STING (dSTING) stood at 35.6 °C.

The molecule `Cc1cccc2c(-c3cc(F)cc4nn(C)cc34)nn(-c3ccc(N4C[C@@H]5[C@H](C4)[C@H]5C(=O)O)nc3)c12` [Example 34, (1R,5S,6R)-3-(5-{6″-fluoro-2″,7-dimethyl-1H,2″H-[3,4″-biindazol]-1-yl}pyridin-2-yl)-3-azabicyclo[3.1.0]hexane-6-carboxylic acid] returned an EC50 on STING of 3280 nM. In the experiment with dog STING (dSTING), the “Delta TM” value was found to be 24.8 °C.

As for `Cc1cccc2c(-c3ccc(F)c4nn(C)c(F)c34)nn(-c3ccc(N4CCC(C(=O)O)CC4)nc3)c12` [Example 53, 1-(5-{3″,7″-difluoro-2″,7-dimethyl-1H,2″H-[3,4″-biindazol]-1-yl}pyridin-2-yl)piperidine-4-carboxylic acid], the EC50 at STING came to 654 nM. Besides, the “Delta TM” value with dog STING (dSTING) was found to be 33.0 °C.

At STING, `Cc1cccc2c(-c3cccc4nn(C)c(F)c34)nn(-c3ccc(N4CCOC(CC(=O)O)C4)nc3)c12` (single isomer, unassigned) [Example 72-3] came in with an EC50 of 5230 nM. Further, the “Delta TM” value in the experiment on dog STING (dSTING) amounted to 28.5 °C.

`CC(=O)N1CCN(c2ccc(-n3nc(-c4c(F)ccc5nn(C)cc45)c4cc(F)cc(C)c43)cn2)CC1` [Example 63, 1-[4-(5-{5,5″-difluoro-2″,7-dimethyl-1H,2″H-[3,4″-biindazol]-1-yl}pyridin-2-yl)piperazin-1-yl]ethan-1-one]: the response at STING was half-maximal at 96.8 nM (EC50). Also, the “Delta TM” value in the experiment with dog STING (dSTING) is 27.4 °C.

`CC(=O)N1CCN(c2ccc(-n3nc(-c4c(Cl)ccc5nn(C)cc45)c4cccc(C)c43)cn2)CC1` [Example 78]: the EC50 on STING turned out to be 817 nM. In the experiment on dog STING (dSTING), the “Delta TM” value was 18.4 °C.

`Cc1cccc2c(-c3c(F)ccc4nn(C)cc34)nn(-c3ccc(N4C[C@@H]5[C@H](C4)[C@H]5C(=O)O)nc3)c12` [Example 5, (1R,5S,6S)-3-(5-{5″-Fluoro-2″,7-dimethyl-1H,2″H-[3,4″-biindazol]-1-yl}pyridin-2-yl)-3-azabicyclo[3.1.0]hexane-6-carboxylic acid] had an EC50 on STING of 282 nM. Moreover, the “Delta TM” value in the experiment on dog STING (dSTING) stood at 36.5 °C.

`Cc1cccc2c(-c3c(F)ccc4nn(C)cc34)nn(-c3ccc(N4CCC(C(=O)O)CC4)nc3)c12` [Example 6, 1-(5-{5″-Fluoro-2″,7-dimethyl-1H,2″H-[3,4″-biindazol]-1-yl}pyridin-2-yl)piperidine-4-carboxylic acid] returned an EC50 on STING of 243 nM. Also, the “Delta TM” value with dog STING (dSTING) came to 35.5 °C.

For `Cc1cccc2c(-c3ccc(F)c4nn(C)c(F)c34)nn(-c3ccc(N4CC[C@H](CC(=O)O)C4)nc3)c12` [Example 55, 2-[(3R)-1-(5-{3″,7″-difluoro-2″,7-dimethyl-1H,2″H-[3,4″-biindazol]-1-yl}pyridin-2-yl)pyrrolidin-3-yl]acetic acid], on STING, a half-maximal effect (EC50) was put at 197 nM. Also, the “Delta TM” value with dog STING (dSTING) worked out at 34.5 °C.

For `Cc1cccc2c(-c3c(F)ccc4nn(C)cc34)nn(-c3ccc(N4CC5CCC4CC5C(=O)O)nc3)c12` (single isomer, unassigned) [Example 28-3], a half-maximal effect at STING (EC50) was put at 222 nM. For the same molecule, the “Delta TM” value in the experiment with dog STING (dSTING) stood at 37.1 °C.

`Cc1cccc2c(-c3cccc4nn(C)c(F)c34)nn(-c3ccc(N4CC5CCC4CC5C(=O)O)nc3)c12` (single isomer, unassigned) [Example 20-4, 2-(5-{3'-fluoro-2',7-dimethyl-1H,2'H-[3,4'-biindazol]-1-yl}pyridin-2-yl)-2-azabicyclo[2.2.2]octane-5-carboxylic acid] had an EC50 at STING of 207 nM. Further, the “Delta TM” value in the experiment on dog STING (dSTING) is 36.9 °C.

`Cc1cccc2c(-c3c(F)cc(F)c4nn(C)c(F)c34)nn(-c3ccc(N4C[C@@H]5[C@H](C4)[C@H]5C(=O)O)nc3)c12` [Example 76, (1R,5S,6R)-3-(5-{3″,5″,7″-trifluoro-2″,7-dimethyl-1H,2″H-[3,4″- biindazol]-1-yl}pyridin-2-yl)-3-azabicyclo[3.1.0]hexane-6-carboxylic acid] returned an EC50 at STING of 695 nM. In addition, in the experiment on dog STING (dSTING), the “Delta TM” value is 33.0 °C.

The molecule `Cc1cccc2c(-c3cccc4nn(C)c(F)c34)nn(-c3ccc(N4CC[C@H](CC(=O)O)C4)nc3)c12` [Example 17, 2-[(3R)-1-(5-{3″-fluoro-2″,7-dimethyl-1H,2″H-[3,4″-biindazol]-1-yl}pyridin-2-yl)pyrrolidin-3-yl]acetic acid] gave an EC50 at STING of 185 nM. Also, the “Delta TM” value with dog STING (dSTING) was 35.8 °C.

On to `Cc1cccc2c(-c3cccc4nn(C)c(F)c34)nn(-c3ccc(N4CCOC(CC(=O)O)C4)nc3)c12` (single isomer, unassigned) [Example 72-1], for which the response at STING was half-maximal at 810 nM (EC50). In addition, in the experiment with dog STING (dSTING), the “Delta TM” value stood at 30.0 °C.

Regarding `Cc1cccc2c(-c3cccc4nn(C)c(F)c34)nn(-c3ccc(N4C[C@H]5C[C@@H]4C[C@@H]5C(=O)O)nc3)c12` [Example 73-1, (1R,4S,5S)-2-(5-{3″-fluoro-2″,7-dimethyl-1H,2″H-[3,4″-biindazol]-1-yl}pyridin-2-yl)-2-azabicyclo[2.2.1]heptane-5-carboxylic acid], the EC50 at STING came to 87.5 nM. The “Delta TM” value in the experiment on dog STING (dSTING) came out at 34.5 °C.

On STING, `CC(=O)N1C[C@H]2C[C@@H]1CN2c1ccc(-n2nc(-c3c(F)cc(F)c4nn(C)cc34)c3cccc(C)c32)cn1` [Example 51, 1-[(1R,4R)-5-(5-{5″,7″-difluoro-2″,7-dimethyl-1H,2″H-[3,4″-biindazol]-1-yl}pyridin-2-yl)-2,5-diazabicyclo[2.2.1]heptan-2-yl]ethan-1-one] yielded an EC50 of 670 nM. In addition, the “Delta TM” value in the experiment with dog STING (dSTING) is 29.0 °C.
